Test results reported in patent USRE38132E1, “Phenylpyrrolidines, phenylimidazolidines,3-phenyl-1,3-oxizolidines and 3-phenyl-1,3-thiazolidines and their use in the treatment of inflammatory disease” (Boehringer Ingelheim Pharmaceuticals, Inc., priority 1997, dated 2003).

The compounds below were run against T1, interaction of ICAM-1 with the Leukointegrin CD18/CD11a (LFA-1) (Homo sapiens, UniProt P05107+P20701) (assay: Assay to determine inhibition of LFA-1 binding to ICAM-1 (immunopurified LFA-1 on plate-bound sICAM-1, ELISA readout)). Conditions: not given.
T1 construct: endogenous in cells; sICAM-1: made in house, secreted from transfected CHO DUX cells
T1 sequence (P20701 26-1170): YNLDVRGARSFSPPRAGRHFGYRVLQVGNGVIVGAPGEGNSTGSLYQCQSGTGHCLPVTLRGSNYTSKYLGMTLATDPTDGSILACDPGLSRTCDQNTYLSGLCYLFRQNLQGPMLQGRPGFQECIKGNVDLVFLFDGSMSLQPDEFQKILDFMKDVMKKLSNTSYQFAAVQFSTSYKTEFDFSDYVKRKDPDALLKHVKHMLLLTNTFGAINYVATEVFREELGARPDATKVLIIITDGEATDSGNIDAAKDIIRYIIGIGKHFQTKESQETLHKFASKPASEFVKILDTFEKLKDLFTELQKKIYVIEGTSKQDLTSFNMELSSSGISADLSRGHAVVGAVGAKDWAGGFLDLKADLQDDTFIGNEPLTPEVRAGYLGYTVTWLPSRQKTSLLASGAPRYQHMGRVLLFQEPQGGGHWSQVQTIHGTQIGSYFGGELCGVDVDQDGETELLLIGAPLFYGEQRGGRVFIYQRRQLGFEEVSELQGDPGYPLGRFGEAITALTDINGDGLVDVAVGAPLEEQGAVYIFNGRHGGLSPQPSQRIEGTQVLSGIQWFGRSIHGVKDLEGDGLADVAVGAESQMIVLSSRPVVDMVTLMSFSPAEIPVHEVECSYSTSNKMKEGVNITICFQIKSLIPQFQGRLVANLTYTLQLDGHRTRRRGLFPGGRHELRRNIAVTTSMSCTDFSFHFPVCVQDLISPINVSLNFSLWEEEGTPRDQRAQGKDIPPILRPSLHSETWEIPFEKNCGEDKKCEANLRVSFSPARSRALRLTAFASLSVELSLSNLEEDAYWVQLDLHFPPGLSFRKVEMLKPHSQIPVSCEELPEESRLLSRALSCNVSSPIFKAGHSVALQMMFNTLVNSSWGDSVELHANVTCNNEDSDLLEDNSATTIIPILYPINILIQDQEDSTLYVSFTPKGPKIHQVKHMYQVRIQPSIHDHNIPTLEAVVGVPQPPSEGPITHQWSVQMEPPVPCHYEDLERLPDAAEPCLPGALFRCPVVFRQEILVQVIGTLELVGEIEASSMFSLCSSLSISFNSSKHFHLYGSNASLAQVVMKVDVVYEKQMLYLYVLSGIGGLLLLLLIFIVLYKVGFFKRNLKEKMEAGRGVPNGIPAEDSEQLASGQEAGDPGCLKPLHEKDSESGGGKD
T1 sequence (P05107 23-769): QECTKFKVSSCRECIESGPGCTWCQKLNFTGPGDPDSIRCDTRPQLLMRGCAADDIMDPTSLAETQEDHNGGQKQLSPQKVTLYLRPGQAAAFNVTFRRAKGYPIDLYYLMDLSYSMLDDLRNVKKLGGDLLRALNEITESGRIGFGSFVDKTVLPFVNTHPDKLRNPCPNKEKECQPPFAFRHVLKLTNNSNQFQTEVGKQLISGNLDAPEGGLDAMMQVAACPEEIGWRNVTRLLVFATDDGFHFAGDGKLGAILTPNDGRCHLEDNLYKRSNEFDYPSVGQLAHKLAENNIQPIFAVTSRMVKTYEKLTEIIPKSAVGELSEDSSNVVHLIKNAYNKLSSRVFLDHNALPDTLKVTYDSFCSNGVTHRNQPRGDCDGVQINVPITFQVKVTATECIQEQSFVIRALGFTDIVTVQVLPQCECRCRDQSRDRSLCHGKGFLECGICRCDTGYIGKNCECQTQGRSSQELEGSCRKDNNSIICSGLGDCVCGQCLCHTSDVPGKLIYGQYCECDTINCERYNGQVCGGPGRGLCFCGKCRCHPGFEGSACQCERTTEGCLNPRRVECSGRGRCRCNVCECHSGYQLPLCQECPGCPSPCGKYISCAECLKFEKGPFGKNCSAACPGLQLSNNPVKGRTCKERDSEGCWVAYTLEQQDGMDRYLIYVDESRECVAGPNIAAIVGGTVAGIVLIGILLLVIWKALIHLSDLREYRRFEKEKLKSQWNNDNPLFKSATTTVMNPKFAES

Kd | Structure (SMILES)
0.8 µM | CC1(Cc2ccccc2)C(=O)N(c2cc(Cl)cc(Cl)c2)C(=O)N1CCO (centres unmarked) [Example 218]
1.09 µM | C[C@@]1(Cc2ccc(Br)cc2)CC(=O)N(c2cc(Cl)cc(Cl)c2)C1=O [Example 278]
0.14 µM | C[C@@]1(Cc2ccc(Br)cc2)C(=O)N(c2cc(Cl)cc(Cl)c2)C(=O)N1CCCCCP(=O)(O)O [Example 221]
0.07 µM | C[C@]1(Cc2ccc(Br)cc2)CC(=O)N(c2cc(Cl)cc(Cl)c2)C1=O [Example 277]

More lines, now with the values behind:

Structure (SMILES) | Kd
C[C@@]1(Cc2ccc(Br)cc2)C(=O)N(c2cc(Cl)cc(Cl)c2)C(=O)N1C(=O)[C@@H]1CCCN1 [Example 234] | 0.41 µM
CC1(Cc2ccccc2)C(=O)N(c2cc(Cl)cc(Cl)c2)C(=O)N1CCCCC(=O)O (centres unmarked) [Example 219] | 1.03 µM
C[C@@]1(Cc2ccc(Br)cc2)C(=O)N(c2cc(Cl)cc(Cl)c2)C(=O)N1C1CCN(CP(=O)(O)O)CC1 [Example 236] | 0.33 µM
CC1(Cc2ccc(-c3cc4ccccc4o3)cc2)NC(=O)N(c2cc(Cl)cc(Cl)c2)C1=O (centres unmarked) [Example 209] | 0.94 µM
C[C@@]1(Cc2ccc(Br)cc2)C(=O)N(c2cc(Cl)cc(Cl)c2)C(=O)N1Cc1ccccc1C(=O)O [Example 239] | 0.28 µM

Same assay, conditions: values marked e approximated from incomplete dose-response curve

Kd | Structure (SMILES)
0.02 µM | Cc1ccc(CC2(C)C(=O)N(c3cc(Cl)cc(Cl)c3)C(=O)N2C)cc1 (centres unmarked) [Example 170]
0.52 µM | CN(C)CCN1C(=O)N(c2cc(Cl)cc(Cl)c2)C(=O)C1(C)Cc1ccc(Br)cc1 (centres unmarked) [Example 99]
1.91 µM | COc1ccc(CN2C(=O)N(c3cc(Cl)cc(Cl)c3)C(=O)[C@@]2(C)Cc2ccc(Br)cc2)cc1 [Example 113]
0.23 µM | COCC1(Cc2ccc(Br)cc2)C(=O)N(c2cc(Cl)cc(Cl)c2)C(=O)N1C (centres unmarked) [Example 175]
0.39 µM | COc1cccc(CN2C(=O)N(c3cc(Cl)cc(Cl)c3)C(=O)[C@@]2(C)Cc2ccc(Br)cc2)n1 [Example 112]
0.26 µM | C[C@@]1(Cc2ccc(Br)cc2)C(=O)N(c2cc(Cl)cc(Cl)c2)C(=O)N1Cc1ccccc1C#N [Example 114]
0.41 µM | CN(C)CCN1C(=O)N(c2cc(Cl)cc(Cl)c2)C(=O)[C@@]1(C)Cc1ccc(Br)cc1 [Example 108]
0.19 µM | C[C@H](O)CN1C(=O)N(c2cc(Cl)cc(Cl)c2)C(=O)[C@@]1(C)Cc1ccc(Br)cc1 [Example 116]

The next lines start with the compound.

Structure (SMILES) | Kd
CC1(Cc2ccc(C(C)(C)C)cc2)NC(=O)N(c2cc(Cl)cc(Cl)c2)C1=O (centres unmarked) [Example 52] | 1.59 µM
CC1(Cc2csc3ccccc23)NC(=O)N(c2cc(Cl)cc(Cl)c2)C1=O (centres unmarked) [Example 27] | ~52 µM
CC1(Cc2ccccc2Br)NC(=O)N(c2cc(Cl)cc(Cl)c2)C1=O (centres unmarked) [Example 48] | 1.75 µM
COc1ccccc1-c1ccc(CC2(C)NC(=O)N(c3cc(Cl)cc(Cl)c3)C2=O)cc1 (centres unmarked) [Example 194] | 0.27 µM
CC1(Cc2ccc(-c3ccc(Cl)cc3)cc2)NC(=O)N(c2cc(Cl)cc(Cl)c2)C1=O (centres unmarked) [Example 205] | 0.56 µM
CC1(Cc2ccc(-c3cccc(Cl)c3)cc2)NC(=O)N(c2cc(Cl)cc(Cl)c2)C1=O (centres unmarked) [Example 202] | 0.23 µM
O=C1NC(Cc2ccccc2)C(=O)N1c1cc(Cl)c(Cl)c(Cl)c1 (centres unmarked) [Example 70] | 1.89 µM
CC(C)(C)C(=O)c1ccc(CC2(C)NC(=O)N(c3cc(Cl)cc(Cl)c3)C2=O)cc1 (centres unmarked) [Example 47] | 4.31 µM
CC(C)N1C(=O)N(c2cc(Cl)cc(Cl)c2)C(=O)C1(C)Cc1ccc(Br)cc1 (centres unmarked) [Example 139] | 0.79 µM
CN1C(=O)N(c2cc(Cl)cc(Cl)c2)C(=O)C1(C)Cc1ccc2ccccc2n1 (centres unmarked) [Example 161] | 4.56 µM
COc1cccc(CC2(C)C(=O)N(c3cc(Cl)cc(Cl)c3)C(=O)N2C)c1 (centres unmarked) [Example 165] | 1.07 µM
CC1(Cc2cccc(OC(F)(F)F)c2)NC(=O)N(c2cc(Cl)cc(Cl)c2)C1=O (centres unmarked) [Example 68] | 2.58 µM
CN1C(=O)N(c2cc(Cl)cc(Cl)c2)C(=O)C1(C)Cc1cccc(F)c1 (centres unmarked) [Example 147] | 0.34 µM
O=C1NC(Cc2ccsc2)C(=O)N1c1cc(Cl)cc(Cl)c1 (centres unmarked) [Example 26] | 2.75 µM
CN1C(=O)N(c2cc(Cl)cc(Cl)c2)C(=O)C1(C)Cc1cccc(C#N)c1 (centres unmarked) [Example 153] | 2.19 µM
